From US10717746B2, “Chemical compounds” (ASTRAZENECA AB, priority 2015, dated 2020)
Where a name gives a salt, the structure may show the parent alone. Read-outs that look alike come from different tables or passages of the source.

Columns and labels:
CDK9/CycT1 [1] = target: T1, CDK9/CycT1 (Homo sapiens (Human), UniProt P50750); test: CDK9 kinase assay, ATP concentration at Km (mobility shift, Caliper LC3000); assay type: biochemical; settings: 6 μM ATP, 3 nM CDK9/CycT1; read-out: CDK9 ATP conc. at Km (IC50)
Experimental: (§1) Activity of CDK9 was determined in-vitro using a mobility shift assay on a Caliper LC3000 reader (Caliper/PerkinElmer), which measures fluorescence of a phosphorylated and unphosphorylated fluorescent peptide substrate and calculates a ratiometric value to determine percent turnover. Phosphorylation of the peptide in the presence and absence of the compound of interest was determined. Enzyme/substrate/adenosine triphosphate (ATP) mix (3 nM CDK9/CycT1, 6 μM ATP, 1.5 μM CDK9 peptide substrate (FITC-X-GSRTPMY-NH2 (X: epsilon aminocaproic acid)), 50 mM HEPES (pH7.2), 1 mM dithiothreitol, 0.01% tween 20, 50 μg/mL bovine serum albumin, (final assay concentration)) (5 μl) was preincubated with 2 μl of compound for 15 minutes at 25° C. Reactions were initiated with 5 μl of 24 mM MgCl2 (10 mM final assay concentration) in buffer (50 mM HEPES (pH7.2), 1 mM dithiothreitol, 0.01% tween 20, 50 μg/mL bovine serum albumin, (final assay concentration) and incubated at 25° C. for 90 minutes and reactions were stopped by addition of 5 μl of Stop mix consisting of 65 mM HEPES (pH7.2), 35.5 mM EDTA, 0.227% Coatin Reagent 3 (Caliper/PerkinElmer), and 0.003% Tween. Phosphorylated and unphosphorylated substrate was detected by a Caliper LC3000 reader (Caliper/PerkinElmer) in the presence of separation buffer consisting of 100 mM HEPES (pH7.2), 15.8 mM EDTA, 0.1% Coatin Reagent 3 (Caliper/PerkinElmer), 0.015% Brij-35, 5% DMSO, and 5.6 mM MgCl2. CDK9 enzyme was acquired from Carna Biosciences (Catalogue number 04-110), the CDK9 peptide substrate was acquired from Intonation (Boston, Mass.; Custom-made).

CDK9/CycT1 [2] = target: T1, CDK9/CycT1; test: CDK9 kinase assay, high ATP concentration (5 mM ATP); assay type: biochemical; settings: 1.5 nM CDK9, read-out: CDK9 High ATP conc. (IC50)
Experimental: as §1
High ATP assays were run the same way with the following modifications: the final assay concentration of CDK9 was 1.5 nM and the final assay concentration of ATP was 5 mM.

[3] = test system: phosphorylation of RNA Polymerase II (RNAPII) at the Ser2 site in MCF7 cells; test: MCF7 pSer2 RNAPII MOA assay (immunofluorescence); assay type: cell-based; settings: 6-hr treatment, read-out: p-Ser 2 RNAPII (IC50)
Experimental: MCF7 pSer2 RNAPII MOA Assay
This is an immunofluorescence assay to determine the effect of CDK9 inhibitors on phosphorylation of RNA Polymerase II (RNAPII) at the Ser2 site in the breast cancer cell line, MCF7. On day one, 2500 MCF7 cells/well were seeded in 30 μl of growth media (RPMI+10% FBS+1% L-Glu+P/S) in 384-well black-wall clear-bottom plates, incubate plates overnight at 37° C. incubator. On the second day, the cells were treated with CDK9 inhibitors (7 point dose response ranging from 3 μM to 0.004 μM) using an ECHO liquid handler (Labcyte). After 6-hr treatment at 37° C. incubator, the cells were fixed with 30 µl/well 7.4% paraformaldehyde for 15 min at room temperature; the cells were washed twice with PBS, then permeabilized with 0.3% Triton X/PBS for 5 min at room temperature. After washing cells with PBS, the cells were incubated with 1:2000 diluted Anti-Ser2 Phospho-RNA pol II antibody (Covance MMS-129R) in 3% FBS/0.1% PBST overnight at 4° C. On the next day, the cells were washed twice with 0.1% PBST, then incubated with 1:1000 diluted Alexa Fluor 488 Goat-anti-mouse antibody (Life Technologies A-11001) and 1:4000 diluted DAPI at room temperature in dark. After one hour incubation, the cells were washed twice with 0.1% PBST, and once with PBS. The plates where sealed and read on an Acumen eX3 microplate cytometer (TTP Labtech) to assess phosphorylation level in each well.

MV411 cells = test: MV411 caspase activity assay (Caspase-Glo 3/7); assay type: cell-based; settings: Homo sapiens, MV4-11, 6 h, 6-hr treatment, caspase 3/7 induction
Experimental: MV411 Caspase Activity Assay
This is a cell assay to measure the induction of caspase activity in the acute myeloid leukemia cell line, MV411 after 6-hr treatment with CDK9 inhibitors. On the first day, 3000 MV411 cells/well were seeded in 50 μl of growth media (IMDM+10% FBS+2% L-Glu+P/S) in 384-well white plates, incubate plates in 37° C. incubator overnight. […] After 6 hour incubation in 37° C. incubator, 25 μl of Caspase-Glo 3/7 reagent (Promega) per well was added into each well, and plates were incubated at room temperature for 30 min in dark. The plates were read on an Infinite M200 microplate reader (Tecan) with a 100 ms integration time.

T1 sequence (P50750 whole entry): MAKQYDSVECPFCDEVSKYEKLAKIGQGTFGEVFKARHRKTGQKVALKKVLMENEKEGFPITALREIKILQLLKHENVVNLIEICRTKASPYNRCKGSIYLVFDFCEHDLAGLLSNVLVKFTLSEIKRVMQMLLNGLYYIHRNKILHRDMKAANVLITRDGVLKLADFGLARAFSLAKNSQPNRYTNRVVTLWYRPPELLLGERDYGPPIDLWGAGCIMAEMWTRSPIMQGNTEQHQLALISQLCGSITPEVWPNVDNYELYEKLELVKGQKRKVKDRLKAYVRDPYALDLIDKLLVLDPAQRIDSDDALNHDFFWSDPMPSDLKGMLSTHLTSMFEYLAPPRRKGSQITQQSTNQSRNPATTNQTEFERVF
T1 sequence (O60563 whole entry partner): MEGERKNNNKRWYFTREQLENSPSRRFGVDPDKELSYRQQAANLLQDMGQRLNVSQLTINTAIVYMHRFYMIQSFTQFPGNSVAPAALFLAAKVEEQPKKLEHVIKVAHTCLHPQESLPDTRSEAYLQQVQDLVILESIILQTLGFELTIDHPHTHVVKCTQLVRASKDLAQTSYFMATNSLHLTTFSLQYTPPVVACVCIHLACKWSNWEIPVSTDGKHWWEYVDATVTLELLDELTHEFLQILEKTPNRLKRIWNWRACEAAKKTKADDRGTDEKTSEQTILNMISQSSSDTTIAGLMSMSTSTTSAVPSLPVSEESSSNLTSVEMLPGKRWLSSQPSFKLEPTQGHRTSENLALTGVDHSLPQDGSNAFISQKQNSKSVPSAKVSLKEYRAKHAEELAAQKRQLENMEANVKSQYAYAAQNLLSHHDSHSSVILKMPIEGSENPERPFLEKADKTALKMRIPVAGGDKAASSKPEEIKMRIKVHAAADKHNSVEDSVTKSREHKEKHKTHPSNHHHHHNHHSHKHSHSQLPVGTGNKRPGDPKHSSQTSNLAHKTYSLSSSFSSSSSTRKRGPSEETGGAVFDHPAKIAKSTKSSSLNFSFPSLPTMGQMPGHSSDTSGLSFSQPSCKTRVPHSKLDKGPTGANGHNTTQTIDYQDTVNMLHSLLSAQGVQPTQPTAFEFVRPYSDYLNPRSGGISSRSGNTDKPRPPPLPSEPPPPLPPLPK

| Structure (SMILES) | IC50 (CDK9/CycT1 [1]) [µM] | IC50 (CDK9/CycT1 [2]) [µM] | IC50 ([3]; Homo sapiens, MCF7, 6 h) [µM] | IC50 (MV411 cells) [µM] | IC50 [3] [µM] |
| --- | --- | --- | --- | --- | --- |
| CC(=O)N[C@H]1CCC[C@H](C(=O)Nc2cc(-c3cnn4c3CC(C)(C)C4)c(F)cn2)C1 (relative stereo) [Example 84, (1S,3S)-3-acetamido-N-(4-(5,5-dimethyl-5,6-dihydro-4H-pyrrolo[1,2-b]pyrazol-3-yl)-5-fluoropyridin-2-yl)cyclohexane-1-carboxamide] | 0.028 | 2.13 | > 1.95 | 2.52 |  |
| CC(=O)N[C@@H]1CCC[C@H](C(=O)Nc2cc(-c3cnn4c3CC(C)C4)c(Cl)cn2)C1 (single isomer, unassigned) [Example 41] | < 0.003 | 0.027 |  |  | 0.076 |
| CC(=O)N[C@@H]1CCC[C@H](C(=O)Nc2cc(-c3cnn4c3CC(C)C4)c(Cl)cn2)C1 (single isomer, unassigned) [Example 42] | < 0.003 | 0.026 | 0.036 | 0.092 |  |
| CC(=O)N[C@H]1CCC[C@H](C(=O)Nc2cc(-c3cnn4c3CC(C)(C)C4)c(Cl)cn2)C1 (single isomer, unassigned) [Example 59, trans-3-acetamido-N-(5-chloro-4-(5,5-dimethyl-5,6-dihydro-4H-pyrrolo[1,2-b]pyrazol-3-yl)pyridin-2-yl)cyclohexanecarboxamide] |  |  |  |  | > 2.44 |
| CC(=O)N[C@H]1CCC[C@H](C(=O)Nc2cc(-c3cnn4c3CCCC4)c(Cl)cn2)C1 (single isomer, unassigned) [Example 61, trans-3-acetamido-N-(5-chloro-4-(4,5,6,7-tetrahydropyrazolo[1,5-a]pyridin-3-yl)pyridin-2-yl)cyclohexanecarboxamide] |  |  |  |  | > 3 |
| CC(=O)N[C@H]1CCC[C@H](C(=O)Nc2cc(-c3cnn4c3CCCC4)c(Cl)cn2)C1 (single isomer, unassigned) [Example 62, trans-3-acetamido-N-(5-chloro-4-(4,5,6,7-tetrahydropyrazolo[1,5-a]pyridin-3-yl)pyridin-2-yl)cyclohexanecarboxamide] |  |  |  |  | 0.333 |
| CC(=O)N[C@@H]1CCC[C@H](C(=O)Nc2cc(-c3cnn4c3CC(C)CC4)c(Cl)cn2)C1 (single isomer, unassigned) [Example 65] | < 0.003 | < 0.004 |  |  | 0.037 |
| CC(=O)N[C@@H]1CCC[C@H](C(=O)Nc2cc(-c3cnn4c3CCC(C)C4)c(Cl)cn2)C1 (single isomer, unassigned) [Example 68] | < 0.003 | 0.053 | 0.131 |  |  |
| CC(=O)N[C@@H]1CCC[C@H](C(=O)Nc2cc(-c3cnn4c3CCC(C)C4)c(Cl)cn2)C1 (single isomer, unassigned) [Example 69] | 0.005 | 0.246 |  |  | 0.193 |
| COC1CCc2c(-c3cc(NC(=O)[C@H]4CCC[C@@H](NC(C)=O)C4)ncc3Cl)cnn2C1 (single isomer, unassigned) [Example 70] | < 0.003 | 0.02 |  |  | 0.073 |
| COC1CCc2c(-c3cc(NC(=O)[C@H]4CCC[C@@H](NC(C)=O)C4)ncc3Cl)cnn2C1 (single isomer, unassigned) [Example 71] | 0.016 | 1.72 |  |  | > 2.35 |
| COC1CCn2ncc(-c3cc(NC(=O)[C@H]4CCC[C@@H](NC(C)=O)C4)ncc3Cl)c2C1 (single isomer, unassigned) [Example 73] | < 0.003 | 0.039 |  |  | 0.218 |
| CC(=O)N[C@@H]1CCC[C@H](C(=O)Nc2cc(-c3cnn4c3C(O)C(C)(C)C4)c(Cl)cn2)C1 (single isomer, unassigned) [Example 79] | < 0.003 | < 0.003 |  |  | 0.01 |
| CC(=O)N[C@@H]1CCC[C@H](C(=O)Nc2cc(-c3cnn4c3C(O)C(C)(C)C4)c(Cl)cn2)C1 (single isomer, unassigned) [Example 80] | 0.004 | 0.135 |  |  | 0.247 |
| CC(=O)N[C@@H]1CCC[C@H](C(=O)Nc2cc(-c3cnn4c3CCCC4)c(Cl)cn2)C1 [Example 2, (1S,3R)-3-acetamido-N-(5-chloro-4-(4,5,6,7-tetrahydropyrazolo[1,5-a]pyridin-3-yl)pyridin-2-yl)cyclohexanecarboxamide] |  |  | 0.13 | 0.12 |  |
| CC(=O)N[C@H]1CCC[C@@H](C(=O)Nc2cc(-c3cnn4c3CCCC4)c(Cl)cn2)C1 [Example 9, (1R,3S)-3-acetamido-N-(5-chloro-4-(4,5,6,7-tetrahydropyrazolo[1,5-a]pyridin-3-yl)pyridin-2-yl)cyclohexanecarboxamide] |  |  | > 3 | 4.09 |  |
| CC(=O)N[C@@H]1CCC[C@H](C(=O)Nc2cc(-c3cnn4c3CC(C)(C)C4)c(Cl)cn2)C1 [Example 14, (1S,3R)-3-acetamido-N-(5-chloro-4-(5,5-dimethyl-5,6-dihydro-4H-pyrrolo[1,2-b]pyrazol-3-yl)pyridin-2-yl)cyclohexanecarboxamide] |  |  | 0.023 | 0.014 |  |
| CC(=O)N[C@@H]1CCC[C@H](C(=O)Nc2cc(-c3cnc4n3CC(C)(C)C4)c(Cl)cn2)C1 [Example 22, (1S,3R)-3-acetamido-N-(5-chloro-4-(6,6-dimethyl-6,7-dihydro-5H-pyrrolo[1,2-a]imidazol-3-yl)pyridin-2-yl)cyclohexanecarboxamide] |  |  | 0.036 | 0.054 |  |
| N[C@@H]1CCC[C@H](C(=O)Nc2cc(-c3cnn4c3CCCC4)c(Cl)cn2)C1 [Example 31b, (1S,3R)-3-amino-N-(5-chloro-4-(4,5,6,7-tetrahydropyrazolo[1,5-a]pyridin-3-yl)pyridin-2-yl)cyclohexanecarboxamide dihydrochloride] | 0.036 | 2.65 | 1.8 |  |  |
| CC(=O)N[C@H]1CCC[C@@H](C(=O)Nc2cc(-c3cnn4c3CC(C)(C)C4)c(Cl)cn2)C1 [Example 43, (1R,3S)-3-acetamido-N-(5-chloro-4-(5,5-dimethyl-5,6-dihydro-4H-pyrrolo[1,2-b]pyrazol-3-yl)pyridin-2-yl)cyclohexanecarboxamide] |  |  | 0.307 | 0.416 |  |
| CC(=O)N[C@@H]1CCC[C@H](C(=O)Nc2cc(-c3cnn4c3CC(C)(C)C4)c(C)cn2)C1 [Example 47, (1S,3R)-3-acetamido-N-(4-(5,5-dimethyl-5,6-dihydro-4H-pyrrolo[1,2-b]pyrazol-3-yl)-5-methylpyridin-2-yl)cyclohexanecarboxamide] |  |  | 0.04 | 0.074 |  |
| CC1(C)Cc2c(-c3cc(NC(=O)[C@H]4CCC[C@@H](NC(=O)CCO)C4)ncc3Cl)cnn2C1 [Example 52, (1S,3R)—N-(5-chloro-4-(5,5-dimethyl-5,6-dihydro-4H-pyrrolo[1,2-b]pyrazol-3-yl)pyridin-2-yl)-3-(3-hydroxypropanamido)cyclohexanecarboxamide] | < 0.003 | 0.004 |  |  |  |
